Legend:
[1] = test system: Human immunodeficiency virus 1; experiment: Antiviral activity against HIV1; format: functional, organism-based
HEK293 = experiment: Cytotoxicity against HEK293T cells; format: functional; details: Homo sapiens
[2] = test system: Human immunodeficiency virus 1; experiment: Antiviral activity against HIV1 L100I mutant; format: functional, organism-based
[3] = test system: Human immunodeficiency virus 1; experiment: Antiviral activity against HIV1 Y181S mutant; format: functional, organism-based
[4] = test system: Human immunodeficiency virus 1; experiment: Antiviral activity against HIV1 K103N mutant; format: functional, organism-based
[5] = test system: Human immunodeficiency virus 1; experiment: Antiviral activity against HIV1 Y181C mutant; format: functional, organism-based
[6] = test system: Human immunodeficiency virus 1; experiment: Antiviral activity against HIV1 I135V mutant; format: functional, organism-based
[7] = test system: Human immunodeficiency virus 1; experiment: Antiviral activity against HIV1 F227L mutant; format: functional, organism-based
[8] = test system: Human immunodeficiency virus 1; experiment: Antiviral activity against HIV1 Y188L mutant; format: functional, organism-based
[9] = test system: Human immunodeficiency virus 1; experiment: Antiviral activity against HIV1 E138K mutant; format: functional, organism-based
[10] = test system: Human immunodeficiency virus 1; experiment: Antiviral activity against HIV1 V106A mutant; format: functional, organism-based
[11] = test system: Human immunodeficiency virus 1; experiment: Antiviral activity against HIV1 V179E mutant; format: functional, organism-based
[12] = test system: Human immunodeficiency virus 1; experiment: Antiviral activity against HIV1 Y181H mutant; format: functional, organism-based

Compound | EC50 [1] | CC50 (HEK293) | EC50 [2] | EC50 [3] | EC50 [4] | EC50 [5] | EC50 [6] | EC50 [7] | EC50 [8] | EC50 [9] | EC50 [10] | EC50 [11] | EC50 [12]
CCCCC12CC1(C(=O)Nc1ccc(C(N)=O)cc1)C(=O)Nc1ccc(Cl)cc12 (configuration not stated) | 4550 nM | > 10000 nM |  |  |  |  |  |  |  |  |  |  | 
CCCCC12CC1(C(=O)OCC)C(=O)Nc1ccc(Cl)cc12 (configuration not stated) | 3 nM | > 10000 nM | 14 nM | 684 nM | 884 nM | 1650 nM | 28 nM | 7 nM | > 10000 nM | 47 nM | 279 nM | 914 nM | 9 nM
C=CCOCC12CC1(CCCC)c1cc(Cl)ccc1NC2=O (configuration not stated) | 240 nM | > 10000 nM |  |  |  |  |  |  |  |  |  |  | 
CCCCC12CC1(C(=O)OCCC#N)C(=O)Nc1ccc(Cl)cc12 (configuration not stated) | 113 nM | > 10000 nM |  |  |  |  |  |  |  |  |  |  | 
CCOC(=O)C12CC1(CC(C)C)c1cc(Cl)ccc1NC2=O (configuration not stated) | 57 nM | > 10000 nM | 63 nM | 901 nM | > 10000 nM | > 10000 nM | 85 nM | 22 nM | > 10000 nM | 91 nM | 2940 nM | 3950 nM | 210 nM
CCOC(=O)C12CC1(C1CC1)c1cc(Cl)ccc1NC2=O (configuration not stated) | > 10000 nM | > 10000 nM |  |  |  |  |  |  |  |  |  |  | 
CCCCC12CC1(C#N)C(=O)Nc1ccc(Cl)cc12 (configuration not stated) | 197 nM | > 10000 nM |  |  |  |  |  |  |  |  |  |  | 
CCOC(=O)C12CC1(C1CCCC1)c1cc(Cl)ccc1NC2=O (configuration not stated) | 3250 nM | > 10000 nM |  |  |  |  |  |  |  |  |  |  | 
Cc1ccnc2c1NC(=O)c1cccnc1N2C1CC1 [NEVIRAPINE] |  | > 10000 nM |  | 3000 nM |  | > 10000 nM | 79 nM | 148 nM | > 10000 nM | 31 nM | 8460 nM | 116 nM | 112 nM
CCCCC12CC1(C(=O)N1CCCC1)C(=O)Nc1ccc(Cl)cc12 (configuration not stated) | > 10000 nM | > 10000 nM |  |  |  |  |  |  |  |  |  |  | 
CCOC(=O)C12CC1(CCc1ccccc1)c1cc(Cl)ccc1NC2=O (configuration not stated) | 221 nM | > 10000 nM |  |  |  |  |  |  |  |  |  |  | 
O=C1Nc2ccc(Cl)cc2C(C#CC2CC2)(C(F)(F)F)O1 (single isomer, unassigned) [EFAVIRENZ] |  | > 10000 nM |  | 1 nM |  |  | 1 nM | 1 nM | 280 nM | 2 nM | 4 nM | 6 nM | 2 nM
CCCCC12CC1(C(=O)N1CCC1)C(=O)Nc1ccc(Cl)cc12 (configuration not stated) | > 10000 nM | > 10000 nM |  |  |  |  |  |  |  |  |  |  | 
CCCCC12CC1(C(=O)CC1CC1)C(=O)Nc1ccc(Cl)cc12 (configuration not stated) | 5690 nM | > 10000 nM |  |  |  |  |  |  |  |  |  |  | 
CCCCC12CC1(C(=O)Nc1ccccc1C(N)=O)C(=O)Nc1ccc(Cl)cc12 (configuration not stated) | 1330 nM | > 10000 nM |  |  |  |  |  |  |  |  |  |  | 
CCOC(=O)C12CC1(C)c1cc(Cl)ccc1NC2=O (configuration not stated) | > 10000 nM | > 10000 nM |  |  |  |  |  |  |  |  |  |  | 
CCOC(=O)C12CC1(C(C)C)c1cc(Cl)ccc1NC2=O (configuration not stated) | > 10000 nM | > 10000 nM |  |  |  |  |  |  |  |  |  |  | 
CCCCC12CCC1(C(=O)OCC)C(=O)Nc1ccc(Cl)cc12 (configuration not stated) | 102 nM | > 10000 nM |  |  |  |  |  |  |  |  |  |  | 
CCCCC12CC1(CO)C(=O)Nc1ccc(Cl)cc12 (configuration not stated) | 743 nM | > 10000 nM |  |  |  |  |  |  |  |  |  |  | 
CCCCC12CC1(C(=O)NCCC(=O)O)C(=O)Nc1ccc(Cl)cc12 (configuration not stated) | > 10000 nM | > 10000 nM |  |  |  |  |  |  |  |  |  |  | 
CCOC(=O)C12CC1(C1CCCCC1)c1cc(Cl)ccc1NC2=O (configuration not stated) | > 10000 nM | > 10000 nM |  |  |  |  |  |  |  |  |  |  | 
CCCCC12CC1(C(=O)OCC=C(C)C)C(=O)Nc1ccc(Cl)cc12 (configuration not stated) | 2360 nM | > 10000 nM |  |  |  |  |  |  |  |  |  |  | 
CCCCC12CC1(C(=O)OC)C(=O)Nc1ccc(Cl)cc12 (configuration not stated) | 1 nM | > 10000 nM | 4 nM | 581 nM | 682 nM | 727 nM | 12 nM | > 10000 nM | 7340 nM | 8 nM | 57 nM | 244 nM | 8 nM
C=CCOC(=O)C12CC1(CCCC)c1cc(Cl)ccc1NC2=O (configuration not stated) | 1 nM | > 10000 nM | 1 nM | 932 nM | 1080 nM | 2940 nM | 23 nM | 1 nM | > 10000 nM | 32 nM | 1220 nM | 233 nM | 20 nM
CCCCC12CC1(COC)C(=O)Nc1ccc(Cl)cc12 (configuration not stated) | 45 nM | > 10000 nM | 33 nM | 2700 nM | 2920 nM | 5030 nM | 46 nM | 20 nM | > 10000 nM | 42 nM | 726 nM | 721 nM | 121 nM
CCCCC12CC1(C(=O)CCC)C(=O)Nc1ccc(Cl)cc12 (configuration not stated) | 265 nM | > 10000 nM |  |  |  |  |  |  |  |  |  |  | 

Reference: ChEMBL document CHEMBL1146842, “Design, synthesis, and biological evaluations of novel quinolones as HIV-1 non-nucleoside reverse transcriptase inhibitors” (Bioorg Med Chem Lett, 2006)
